Measured values: patent US12630573B2, “High-affinity Cu(I) ligands and methods of use thereof” (GEORGIA TECH RESEARCH CORPORATION, priority 2019, dated 2026)

Experiments:
Type in all cases: binding
[1] = Molar ratio titration against BCA copper(I) complex; conditions: linear decrease in absorbance at 562 nm
Description: In a quartz cuvette with 1 cm path length, BCA (9.0 μL) was diluted from a 50 mM aqueous stock solution (dissolved by addition of KOH) into 3.0 mL of buffer (10 mM PIPES, 0.1 M KCl, pH 7.0, 25° C.). Furthermore, Cu(II)SO4 (5.0 μL) from a 30 mM stock solution) and sodium ascorbate (7.5 μL from a 60 mM stock solution) were added. After equilibration for 10 minutes, a UV-vis spectrum was recorded, and the solution was titrated in 1-10 μL aliquots with a 3 mM stock solution of phenPS in DMF or naphPS in DMSO. For phenPS, the endpoint occurred at 1.04 molar equivalents on the basis of the mass employed for stock solution preparation, consistent with incomplete removal of the solvent of crystallization as observed by ^1H NMR. An independent molar ratio titration against [Cu(I)MCL-2]PF6 confirmed the stock concentration as 2.88 mM rather than 3.0 mM, and the plotted Cu(I)/phenPS ratio is adjusted accordingly.

[2] = Molar ratio titration with [Cu(I)MCL-2]PF6; conditions: 10 mM PIPES, 0.1 M KCl, pH 7; fit 250-400 nm
Description: In a quartz cuvette with 1 cm path-length, a 50 μM aqueous solution of phenPS was prepared by diluting the ligand from a stock solution (3 mM in DMF) into 2.95 mL of aqueous buffer (10 mM PIPES, 0.1 M KCl, pH 7) under rapid stirring. After recording a UV-vis absorption spectrum from 240 to 500 nm, [Cu(I)MCL-2]PF6 (3 mM stock solution in water) was added in 5 μM aliquots up to 95 μM. The absorption spectrum was recorded after a 1 min mixing period following each aliquot. To derive an accurate reference spectrum of Cu(I)-MCL-2 complex, a separate titration was conducted using pure DMF in place of the phenPS stock solution. The exact concentration of the phenPS stock solution was calibrated against [Cu(I)MCL-2]PF6 by plotting the apparent fractional saturation of the ligand, calculated as f=(A−A0)/(Asat−A0) where A corresponds to the absorbance at 290 nm and the subscripts 0 and sat refer to the spectra at 0 and 50 μM Cu(I), versus nominal molar equivalents of Cu(I) for the first 10 data points (0-0.9 molar equivalents). After concentration correction and subtraction of the DMF background absorption, non-linear least-squares fitting of the titration dataset over the wavelength range 250-400 nm was performed using a fixed log β11 of 21.2 for Cu(I)-phenPS to yield a log β12=31.86±0.07 (log K2=10.66±0.07) for Cu(I)2phenPS.

[3] = Spectrophotometric Cu(I) competition titration against BCS; conditions: pH 7.0, 10 mM PIPES, 0.1 M KCl, 25° C.
Description: An aqueous sodium bathocuproine disulfonate (BCS, Acros Organics) stock solution (60 mM) was prepared calibrated by competition titration against MCL-1 as previously described (Bagchi, P., et al., J. Am. Chem. Soc., 135(49) (2013)). BCS (1.50 mM), sodium ascorbate (150 μM) and CuSO4 (30 μM) were sequentially added via aqueous stock solutions to 3 mL of buffer (10 mM PIPES, 0.1 M KCl, pH 7.0) in a 1-cm path length cuvette equipped with magnetic stirring, and a UV-Vis absorption spectrum was recorded from 650-380 nm. PhenPS was added in 5 μM aliquots from a 2.88 mM stock solution in DMF and an absorption spectrum was acquired after a 2 min equilibration period following each aliquot. The titration was conducted in duplicate, and each dataset was analyzed by nonlinear least squares fitting over the spectral range from 650-400 nm using the Specfit software package from Spectrum Software Associates. The stability constant for naphPS was determined similarly except that the ligand was delivered from a 3.0 mM stock solution in DMSO and a 5-minute equilibration period was required to obtain a stable spectrum after each aliquot.
An aqueous sodium bathocuproine disulfonate (BCS, Acros Organics) stock solution (60 mM) was prepared and calibrated by competition titration against MCL-1 as previously described (Bagchi, P., et al., J. Am. Chem. Soc., 135(49) (2013)). […]

| Structure (SMILES) | removal of Cu(I) from BCA complex [1] | log β12 for Cu(I)2phenPS [2] | dissociation constant Kd of Cu(I) complex [3] [zM] |
| --- | --- | --- | --- |
| CP(C)(=S)CP(CP(C)(C)=S)c1cccc2cccc(P(CP(C)(C)=S)CP(C)(C)=S)c12 [naphPS, 1,8-Bis(bis(dimethylphosphorothioylmethyl)phosphino)naphthalene] | quantitative removal of Cu(I) | – | – |
| CP(C)(=S)CP(CP(C)(C)=S)c1ccccc1P(CP(C)(C)=S)CP(C)(C)=S [phenPS, 1,2-Bis(bis(dimethylphosphorothioylmethyl)phosphino)benzene] | quantitative removal of Cu(I) | 31.86±0.07 | 0.6 |
